The source of these data is PMC8789663 (The Journal of Biological Chemistry, 2021).

The target of assay [1] is endogenous rat GLP-1 receptor (rat (endogenous in INS-1 832/13 cells and rat islets)) (UniProt P32301).
For assay [2], the system named is rat islets. The experiment in a line: Perifusion assay of rat islet GSIS, step-wise glucose increase 2.8 to 16.7 mM. Particulars: for block of potentiation of GSIS by GLP-1, PKC inhibitors: 10 µM; for potentiation of first and second phase GSIS by cyclic nucleotide analog prodrug: 10 μM, representative of six independent experiments; for block of potentiation of GSIS by GLP-1 (1 nM), PLC inhibitor or negative control: 1 µM, pretreatment for 40 min; for effect of PLC inhibitor or negative control alone on GSIS: 1 µM in Fig. S2.

A further assay has as its system Epac1 and Epac2. The note with it: unconjugated Rp-8-Br-cAMPS; cited from earlier work. The source says: (§1) A selective effect is possible based on our previous report that the cAMP antagonist prodrug Rp-8-Br-cAMPS-pAB abolished first-phase but not second-phase GSIS in response to glucose alone ([25]).
Assay [3] relates to PKA. Particulars: unconjugated Rp-8-Br-cAMPS; cited from earlier work.
Description: as §1

A further assay has as its system islets. Particulars: raising levels of cAMP; cited from earlier work. The text has this: Identifying the mechanism for this switch from cAMP-independent to cAMP-dependent insulin secretion is of great interest. Shibasaki et al. ([33]) reported a cAMP-regulated mechanism of insulin secretion that results from “restless newcomer” exocytosis in which Epac2 activation mobilizes cytoplasmic secretory granules so that they quickly transit to the plasma membrane for release without pausing in a “docked” state. When islets are stimulated with glucose alone, this newcomer exocytosis is more prominent during first-phase as compared with second-phase GSIS. Raising levels of cAMP by treatment ...

The subject of assay [4] is T1, PKA.
T1 construct: endogenous PKA, read out indirectly with FRET reporter AKAR3 (PKA substrate)
The experiment in a line: Live-cell FRET assay (435 nm excitation, 485/535 emission ratio, pH 7.4) with PKA substrate reporter AKAR3; inhibition of PKA activity stimulated by GLP-1. The note with it: n = 12. Type of assay: cell-based, INS-1 832/13 cells transduced with AKAR3.

A further assay has as its system rat perfused pancreas. Particulars: ref 11 (Moens et al.); cited from earlier work.
For assay [5], the system named is rat islets. The experiment in a line: Perifusion assay of rat islet GSIS, linear glucose gradient. The assay is classed as cell-based, Sprague–Dawley rat.
Description: Monophasic insulin secretion from rat islets was measured in response to a linear gradient of glucose concentrations beginning at 3 mM and ending at 30 mM when delivered over a 50 min time course.
The panels A3–C3 illustrate box and whiskers AUC analyses with accompanying ANOVA derived p values where each symbol is the AUC value for the islets of a single perifusion chamber.
The subject of another assay is Epac. Particulars: read-out: IC50, block of GLP-1-stimulated cAMP (H188); INS-1 832/13 cells transduced with H188, GLP-1 stimulated.
The test system of a further assay is β-cell GSIS. Particulars: cited from earlier work.
Description: as §1

Another assay deals with GLP-1R. The note with it: cited from earlier work.
A further assay has as its system GcgR. The note with it: cited from earlier work.
For the next assay, the system named is mouse islets. The note with it: cited from earlier work.
Setting [6] is: Rp-8-Br-cAMPS-pAB 10 μM, five independent experiments.

Chain of endogenous rat GLP-1 receptor (rat (endogenous in INS-1 832/13 cells and rat islets)) (P32301 22-463): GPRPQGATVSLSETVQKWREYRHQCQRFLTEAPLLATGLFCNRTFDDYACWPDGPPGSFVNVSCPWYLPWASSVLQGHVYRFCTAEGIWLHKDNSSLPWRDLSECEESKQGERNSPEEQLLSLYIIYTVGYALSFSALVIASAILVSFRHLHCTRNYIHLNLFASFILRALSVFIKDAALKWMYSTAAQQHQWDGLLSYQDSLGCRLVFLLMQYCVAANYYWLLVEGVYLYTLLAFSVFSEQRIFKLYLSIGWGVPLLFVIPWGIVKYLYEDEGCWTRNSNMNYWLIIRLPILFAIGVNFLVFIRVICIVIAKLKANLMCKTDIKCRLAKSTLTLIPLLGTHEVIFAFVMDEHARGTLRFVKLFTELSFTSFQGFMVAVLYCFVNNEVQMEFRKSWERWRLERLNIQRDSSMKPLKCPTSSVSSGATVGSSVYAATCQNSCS

In assay [1], GLP-1[7-36]amide (ligand) had a PKA activity (AKAR3 FRET reporter) in INS-1 832/13 cells of 88 pM and a rise of cAMP (H188 FRET reporter) in INS-1 832/13 cells of 1.9 nM.

With `Cn1cc(C2=C(c3cn(CCCSC(=N)N)c4ccccc34)C(=O)NC2=O)c2ccccc21` [Ro 31-8220], the “block of potentiation of GSIS by GLP-1, PKC inhibitors” value in the assay with rat islets [2] was “failed to block”.

Consider `Nc1ncnc2c1nc(Br)n2C1OC2COP(O)(=S)OC2C1O` (centres unmarked) [Rp-8-Br-cAMPS], for which the “inhibition of stimulatory effects of endogenous cAMP at Epac1 and Epac2” value with Epac1 and Epac2 is “competitively inhibits”. In the assay with PKA [3], the “inhibition of stimulatory effects of endogenous cAMP at PKA” value is “competitively inhibits”.

Regarding `CO[C@@H]1[C@@H]2OP(=O)(OCOC(C)=O)OC[C@H]2O[C@H]1n1c(Sc2ccc(Cl)cc2)nc2c(N)ncnc21` (some centres unmarked) [8-pCPT-2′-O-Me-cAMP-AM], the “potentiation of first and second phase GSIS by cyclic nucleotide analog prodrug” value in the assay on rat islets [2] was “potentiated”.

Regarding `C=C[C@@]1(C)CC(=O)[C@]2(O)[C@@]3(C)[C@@H](O)CCC(C)(C)[C@@H]3[C@H](O)[C@H](OC(C)=O)[C@@]2(C)O1` [forskolin], in the assay on islets, the “newcomer exocytosis during first-phase” value is listed as “potentiates” and the “newcomer exocytosis during second-phase” value is listed as “greatly increasing”.

As to `COc1ccc2c(c1)CC[C@@H]1[C@@H]2CC[C@]2(C)[C@@H](NCCCCCCN3C(=O)C=CC3=O)CC[C@@H]12` [U73122], the “block of potentiation of GSIS by GLP-1 (1 nM), PLC inhibitor or negative control” value with rat islets [2] (GLP-1 1 nM) is reported as “failed to block”. Moreover, in the assay on rat islets [2], the “effect of PLC inhibitor or negative control alone on GSIS” value is reported as “potentiated GSIS”.

On to `CC(=O)Oc1ccc(CSP2(=O)OC[C@H]3O[C@@H](n4c(Br)nc5c(N)ncnc54)[C@H](O)[C@@H]3O2)cc1` (some centres unmarked) [Rp-8-Br-cAMPS-pAB, Rp-8-Br-cAMPS para-acetoxybenzyl (pAB) ester; membrane-permeable prodrug bioactivated by cytosolic esterases to Rp-8-Br-cAMPS], for which the IC50 in the assay with PKA [4] is 2.8 µM.

For des-His^1-Glu^9-glucagon, in the assay with rat perfused pancreas, the “insulin secretion in response to glucose alone, perfused rat pancreas” value is given as “not reduced”. For the same compound, in the assay with rat islets [5] (des-His1-Glu9-glucagon 3 µM vs glucagon 10 nM, single experiment), the “effect on glucagon-potentiated GSIS in the gradient assay” value is on record as “not inhibited”. In the assay with rat islets [5] (des-His1-Glu9-glucagon 3 µM, single experiment), the “effect on GSIS stimulated by a glucose gradient alone” value is listed as “failed to inhibit”.

Take `CC(=O)OCOP1(=O)OCC2OC(n3cnc4c(NC(=O)c5ccccc5)ncnc43)C(O)C2O1` (centres unmarked) [6-Bnz-cAMP-AM]: the “potentiation of first and second phase GSIS by cyclic nucleotide analog prodrug” value with rat islets [2] is on record as “potentiated”.

For `CC(=O)Oc1ccc(CSP2(=O)OC[C@H]3O[C@@H](n4c(Br)nc5c(N)ncnc54)[C@H](O)[C@@H]3O2)cc1` (some centres unmarked) [Rp-8-Br-cAMPS-pAB], the IC50 in the assay with Epac came to 1.4 µM. In addition, the “effect on first-phase GSIS in response to glucose alone” value in the assay on β-cell GSIS is on record as “abolished”; with rat islets [2] (setting [6]), “blocked first-phase GSIS”. Moreover, the “effect on second-phase GSIS in response to glucose alone” value in the assay on β-cell GSIS is “not”; with rat islets [2] (setting [6]), “little ability to reduce second-phase GSIS”. The “effect on glucagon-potentiated GSIS in the gradient assay” value in the assay on rat islets [5] (Rp-8-Br-cAMPS-pAB 10 μM vs glucagon 10 nM) is reported as “blocked”. The “effect on GSIS stimulated by a glucose gradient alone” value with rat islets [5] (Rp-8-Br-cAMPS-pAB 10 μM, three independent experiments) is “failed to inhibit”. The “antagonist action versus 5 nM GLP-1 in comparison with 1 nM GLP-1” value in the assay with rat islets [2] (Rp-8-Br-cAMPS-pAB 10 μM) was “weaker”. Further, in the assay on rat islets [2] (Rp-8-Br-cAMPS-pAB 10 μM vs 10 nM glucagon, three independent experiments), the “block of potentiation of GSIS by glucagon” value is “blocked”. For the same compound, in the assay on rat islets [2] (Rp-8-Br-cAMPS-pAB 10 μM vs GLP-1 5, 1, and 0.1 nM), the “block of potentiation of first and second phase GSIS by GLP-1” value is “blocked”. For the same compound, the “effect on second-phase GSIS in the presence of GLP-1” value in the assay with rat islets [2] (Rp-8-Br-cAMPS-pAB 10 μM, GLP-1 1 nM) is “greatly reduced the amplitude of second-phase GSIS”.

Turning to `COc1ccc2c(c1)CC[C@@H]1[C@@H]2CC[C@]2(C)[C@@H](NCCCCCCN3C(=O)CCC3=O)CC[C@@H]12` [U73343], in the assay with rat islets [2] (GLP-1 1 nM), the “block of potentiation of GSIS by GLP-1 (1 nM), PLC inhibitor or negative control” value is given as “failed to block”. The “effect of PLC inhibitor or negative control alone on GSIS” value in the assay with rat islets [2] is reported as “not reproduced”.

`CN(C)C[C@@H]1CCn2cc(c3ccccc32)C2=C(C(=O)NC2=O)c2cn(c3ccccc23)CCO1` [LY 333531]: the “block of potentiation of GSIS by GLP-1, PKC inhibitors” value with rat islets [2] was “failed to block”.

As to `COc1ccc2cc(-c3cc(-c4cc(Cl)cc(Cl)c4)nn3[C@@H](C)c3ccc(C(=O)NCCC(=O)O)cc3)ccc2c1` [MK0893], the “action at the GLP-1R” value in the assay on GLP-1R was “antagonizes”. The “glucagon action at the GcgR” value in the assay with GcgR is “antagonizes”. The “glucagon-stimulated insulin secretion from mouse islets” value in the assay on mouse islets was “inhibit”.
